pIC50: −log10 of the molar value. Active and inactive are the calls of the source. The calls are words filed in the database; no cut-off is given here.
Legend:
[1] = biological target: T1, Histone-lysine N-methyltransferase EHMT1 (Homo sapiens) (UniProt Q9H9B1); assay: Inhibition of wild type recombinant human histone lysine methyltransferase GLP (951 to 1235 residues) expressed in Escherichia coli Rosetta BL21 DE3 PlysS assessed as zinc ions ejection from Cys4-Zn finger at 2.5 to 100 uM after 500 to 3500 secs by FluoZin-3 based fluorescence assay
T1 sequence (whole entry): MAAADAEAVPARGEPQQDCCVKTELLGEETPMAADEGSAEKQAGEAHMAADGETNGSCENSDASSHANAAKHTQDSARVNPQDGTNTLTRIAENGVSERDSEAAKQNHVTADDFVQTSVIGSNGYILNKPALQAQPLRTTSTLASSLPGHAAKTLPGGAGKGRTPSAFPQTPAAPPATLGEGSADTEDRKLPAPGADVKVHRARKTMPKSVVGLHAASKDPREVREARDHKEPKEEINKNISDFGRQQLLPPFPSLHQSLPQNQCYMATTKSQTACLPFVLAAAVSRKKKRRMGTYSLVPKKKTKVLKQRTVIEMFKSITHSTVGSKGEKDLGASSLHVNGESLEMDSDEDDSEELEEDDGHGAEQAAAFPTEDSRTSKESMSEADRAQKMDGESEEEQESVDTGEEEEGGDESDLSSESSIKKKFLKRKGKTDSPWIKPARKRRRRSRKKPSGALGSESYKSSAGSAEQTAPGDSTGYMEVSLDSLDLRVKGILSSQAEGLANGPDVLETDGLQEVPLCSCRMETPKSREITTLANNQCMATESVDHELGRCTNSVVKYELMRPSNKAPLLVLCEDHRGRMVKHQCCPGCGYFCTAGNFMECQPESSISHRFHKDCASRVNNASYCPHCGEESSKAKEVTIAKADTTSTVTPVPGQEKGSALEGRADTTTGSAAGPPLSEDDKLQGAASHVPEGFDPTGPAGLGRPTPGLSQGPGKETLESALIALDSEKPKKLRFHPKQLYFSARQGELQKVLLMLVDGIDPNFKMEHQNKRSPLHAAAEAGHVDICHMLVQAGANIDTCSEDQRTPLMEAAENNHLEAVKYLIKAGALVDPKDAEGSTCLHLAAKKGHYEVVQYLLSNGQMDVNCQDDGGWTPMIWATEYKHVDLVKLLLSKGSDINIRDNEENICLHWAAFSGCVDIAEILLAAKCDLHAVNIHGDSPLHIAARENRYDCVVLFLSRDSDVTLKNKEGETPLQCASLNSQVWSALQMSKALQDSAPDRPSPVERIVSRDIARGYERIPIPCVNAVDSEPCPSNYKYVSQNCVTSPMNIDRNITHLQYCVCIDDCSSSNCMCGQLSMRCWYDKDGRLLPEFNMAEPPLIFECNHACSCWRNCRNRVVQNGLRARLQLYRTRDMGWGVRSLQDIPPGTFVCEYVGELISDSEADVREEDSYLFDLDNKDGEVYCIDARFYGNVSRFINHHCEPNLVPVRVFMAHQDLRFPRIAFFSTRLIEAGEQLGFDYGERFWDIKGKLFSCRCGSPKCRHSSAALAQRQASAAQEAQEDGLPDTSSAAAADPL

[2] = biological target: T2, Histone-lysine N-methyltransferase EHMT2 (Homo sapiens) (UniProt Q96KQ7); assay: Inhibition of wild type recombinant human histone lysine methyltransferase G9a (913 to 1193 residues) expressed in Escherichia coli Rosetta BL21 DE3 PlysS assessed as zinc ions ejection from 3 types of Cys9-type Zn fingers at >50 uM after 1 hr by circular dichroism analysis
T2 sequence (whole entry): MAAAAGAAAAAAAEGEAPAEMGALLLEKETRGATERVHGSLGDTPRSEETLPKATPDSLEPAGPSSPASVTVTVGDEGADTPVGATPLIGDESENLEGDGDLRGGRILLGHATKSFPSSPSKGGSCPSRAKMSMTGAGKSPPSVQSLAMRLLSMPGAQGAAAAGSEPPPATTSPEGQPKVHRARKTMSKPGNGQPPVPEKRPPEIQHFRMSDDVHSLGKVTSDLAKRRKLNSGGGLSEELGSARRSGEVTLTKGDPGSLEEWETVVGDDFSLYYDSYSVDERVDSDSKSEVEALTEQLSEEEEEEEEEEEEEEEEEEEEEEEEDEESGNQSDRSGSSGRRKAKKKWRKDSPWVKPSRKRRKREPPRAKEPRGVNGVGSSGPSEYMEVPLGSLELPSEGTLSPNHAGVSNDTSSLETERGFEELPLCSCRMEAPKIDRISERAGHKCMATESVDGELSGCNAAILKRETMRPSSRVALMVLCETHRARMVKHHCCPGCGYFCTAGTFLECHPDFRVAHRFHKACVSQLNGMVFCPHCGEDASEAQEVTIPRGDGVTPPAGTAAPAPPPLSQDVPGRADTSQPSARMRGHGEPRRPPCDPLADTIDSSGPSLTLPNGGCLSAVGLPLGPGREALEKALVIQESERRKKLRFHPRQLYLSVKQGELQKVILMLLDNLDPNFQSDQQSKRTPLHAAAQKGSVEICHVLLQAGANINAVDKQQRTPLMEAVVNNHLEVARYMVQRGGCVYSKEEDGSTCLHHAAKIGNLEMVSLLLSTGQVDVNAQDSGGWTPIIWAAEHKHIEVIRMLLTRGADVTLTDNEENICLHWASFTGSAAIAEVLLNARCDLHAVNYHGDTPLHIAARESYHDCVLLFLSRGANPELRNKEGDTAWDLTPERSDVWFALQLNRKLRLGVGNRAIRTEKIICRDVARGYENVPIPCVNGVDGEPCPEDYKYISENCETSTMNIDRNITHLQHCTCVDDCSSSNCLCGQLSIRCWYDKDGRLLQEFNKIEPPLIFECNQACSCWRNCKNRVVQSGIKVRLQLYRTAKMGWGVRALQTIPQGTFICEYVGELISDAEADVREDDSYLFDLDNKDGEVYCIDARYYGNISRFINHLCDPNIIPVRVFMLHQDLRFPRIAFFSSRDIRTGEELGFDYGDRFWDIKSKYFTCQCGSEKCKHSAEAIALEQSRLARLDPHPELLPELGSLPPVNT

[3] = biological target: T1, Histone-lysine N-methyltransferase EHMT1 (Homo sapiens); assay: Inhibition of wild type recombinant human histone lysine methyltransferase GLP (951 to 1235 residues) expressed in Escherichia coli Rosetta BL21 DE3 PlysS assessed as zinc ions ejection from 3 types of Cys9-type Zn fingers at >50 uM after 1 hr by circular dichroism analysis
[4] = biological target: T3, Histone-lysine N-methyltransferase EHMT2 (Homo sapiens, UniProt Q96KQ7); assay: Inhibition of wild type recombinant human histone lysine methyltransferase G9a (913 to 1193 residues) expressed in Escherichia coli Rosetta BL21 DE3 PlysS using ARTKQTARKSTGGKA as substrate preincubated for 5 mins followed by substrate/SAM addition measured after 60 mins by MALDI-TOF MS analysis
T3 sequence (Q96KQ7 whole entry): T2 sequence (whole entry)

[5] = biological target: T2, Histone-lysine N-methyltransferase EHMT2 (Homo sapiens); assay: Inhibition of wild type recombinant human histone lysine methyltransferase G9a (913 to 1193 residues) expressed in Escherichia coli Rosetta BL21 DE3 PlysS assessed as zinc ions ejection from 3 types of Cys9-type Zn fingers at >25 uM after 1 hr by circular dichroism analysis

| SMILES | inhibition [1] | inhibition [2] | inhibition [3] | pIC50 [4] | inhibition [5] |
| --- | --- | --- | --- | --- | --- |
| CCN(CC)C(=S)SSC(=S)N(CC)CC | Active | Active | Active | – | – |
| O=c1c2ccccc2[se]n1-c1ccccc1 [EBSELEN] | – | – | – | 6.40 | Active |

Reference: ChEMBL document CHEMBL4184305, “Inhibition of histone lysine methyltransferases G9a and GLP by ejection of structural Zn(II)” (Bioorg Med Chem Lett, 2018)
